Test system: rabbit blood clots
Assay: In vitro sonothrombolysis of rabbit blood clots in a Mylar flow chamber infused with serum
Settings: CPDL 0.001% w/V added to the MB suspension, complete absence of tPA
Experimental: To assess the combined effect of ultrasound in combination with tPA, a tissue permeabilizer, and microbubbles (MBs) on the efficacy of sonothrombolysis, the following experiment was conducted. Sonothrombolysis was performed on rabbit blood clots situated in a Mylar flow chamber (37.0° C.) infused with serum. In addition, tPA was introduced into the flow chamber at several initial concentrations ranging from 0.0 mg/mL to 0.2 mg/mL. At each tPA concentration, the ultrasound delivery parameters were adjusted to maximize the efficacy of sonothrombolysis of the clots. The efficacy of sonothrombolysis was assessed by determining the % clot mass loss per minute within the flow chamber. The ultrasound delivery parameters that were adjusted in this experiment included pulsed ultrasound intensity (0.1-2.0 W/cm2), ultrasound frequency (0.7-4 MHz), and duty factor (0.05-100%).
Once the ultrasound delivery parameters were established for each tPA concentration, uniformly-sized MBs having diameters ranging from about […] were then added to the flow chamber; the concentration and elasticity of the MBs were adjusted while reducing tPA in order to maintain the initial % clot mass loss per minute. […]

How did the “increase of efficacy of sonothrombolysis (% clot mass loss per minute)” value turn out when `O=C1CCCCCCCCCCCCCCO1` [CPDL, cyclopentadecanolide] was run?
The value was “six-fold”.

Reference: patent publication US20130331738A1, “COMPOSITIONS AND METHODS FOR POTENTIATING SONOTHROMBOLYSIS” (Board of Trustees University of Arkansas, priority 2012, published 2013)
